# Laboratory results as given in the supplement of paper PMC10307832.
# Assays:
# Assay in all cases: relative viability (nuclei count vs DMSO), 5 days (fraction); higher = more cells survive
# Motesanib + Trametinib = compound: CC1(C)CNc2cc(NC(=O)c3cccnc3NCc3ccncc3)ccc21 [Motesanib] + CC(=O)Nc1cccc(-n2c(=O)n(C3CC3)c(=O)c3c(Nc4ccc(I)cc4F)n(C)c(=O)c(C)c32)c1 [Trametinib] (partner 0.02 µM)
# Outline: (§1)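 After 5 days of treatment, lung cancer cells in 1536-well plates were fixed and stained in a single step (final 0.05% Triton X-100, 1% formaldehyde, 1 ug/ml Hoechst) and their nuclei counted on 4× images. Treatment had been applied by pin tool the day after seeding as one drug alone or as a fixed anchor-drug dose with five library-drug doses (not always all listed) in √10 steps. Relative viability is the nuclei count of treated wells divided by that of vehicle wells, and values are medians of duplicate plates.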
# Motesanib + Crizotinib = compound: CC1(C)CNc2cc(NC(=O)c3cccnc3NCc3ccncc3)ccc21 [Motesanib] + C[C@@H](Oc1cc(-c2cnn(C3CCNCC3)c2)cnc1N)c1c(Cl)ccc(F)c1Cl [Crizotinib] (partner 1 µM)
# Outline: as §1
# [1] = compound: C[C@@]1(C(=O)Nc2ccc(F)nc2)CCCN1c1nc(Nc2cc(C3CC3)n[nH]2)c2cccn2n1 + CC(C)C[C@H](NC(=O)[C@H](Cc1ccccc1)NC(=O)c1cnccn1)B(O)O [Bortezomib] (partner 0.002 µM)
# Outline: as §1
# [2] = compound: C[C@@]1(C(=O)Nc2ccc(F)nc2)CCCN1c1nc(Nc2cc(C3CC3)n[nH]2)c2cccn2n1 + Nc1nc2[nH]cc(CCc3ccc(C(=O)N[C@@H](CCC(=O)O)C(=O)O)cc3)c2c(=O)[nH]1 [Pemetrexed] (partner 0.2 µM)
# Outline: as §1
cell line,measurement,setting,value
UMC-11,relative viability,Motesanib + Trametinib; first compound 0.01 µM,0.659
same,relative viability,Motesanib + Trametinib; first compound 0.03162 µM,0.94
same,relative viability,Motesanib + Trametinib; first compound 0.1 µM,0.611
same,relative viability,Motesanib + Trametinib; first compound 0.3162 µM,0.744
same,relative viability,Motesanib + Trametinib; first compound 1 µM,0.762
same,relative viability,Motesanib + Crizotinib; first compound 0.01 µM,0.526
same,relative viability,Motesanib + Crizotinib; first compound 0.03162 µM,0.657
same,relative viability,Motesanib + Crizotinib; first compound 0.1 µM,0.631
same,relative viability,Motesanib + Crizotinib; first compound 0.3162 µM,0.595
same,relative viability,Motesanib + Crizotinib; first compound 1 µM,0.742
same,relative viability,[1]; first compound 0.04 µM,0.79
same,relative viability,[1]; first compound 0.1265 µM,0.829
same,relative viability,[1]; first compound 0.4 µM,0.598
same,relative viability,[1]; first compound 1.265 µM,0.733
same,relative viability,[2]; first compound 0.04 µM,0.773
same,relative viability,[2]; first compound 0.1265 µM,0.827
same,relative viability,[2]; first compound 0.4 µM,0.705
same,relative viability,[2]; first compound 1.265 µM,0.722
